Experimental data taken from PubChem BioAssay (NCI).
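Each compound was tested at five concentrations against cells in 96-well plates for 48 hours. At the TGI there is no net growth.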

Tests used:
Test in all cases: growth of human tumour cells (NCI), 48 h
SF-295 CNS = tested on: SF-295 CNS
K-562 leukemia = tested on: K-562 leukemia
OVCAR-3 ovarian = tested on: OVCAR-3 ovarian
SW-620 colon = tested on: SW-620 colon
UO-31 renal = tested on: UO-31 renal
T-47D breast = tested on: T-47D breast
MALME-3M melanoma = tested on: MALME-3M melanoma
NCI-H23 lung = tested on: NCI-H23 lung
A498 renal = tested on: A498 renal
BT-549 breast = tested on: BT-549 breast
HS 578T breast = tested on: HS 578T breast
ACHN renal = tested on: ACHN renal
DU-145 prostate = tested on: DU-145 prostate
HL-60(TB) leukemia = tested on: HL-60(TB) leukemia
A549 NSCLC = tested on: A549 NSCLC
SK-OV-3 ovarian = tested on: SK-OV-3 ovarian
OVCAR-4 ovarian = tested on: OVCAR-4 ovarian
EKVX NSCLC = tested on: EKVX NSCLC

Row | SMILES | TGI (SF-295 CNS) [µM] | TGI (K-562 leukemia) [µM] | TGI (OVCAR-3 ovarian) [µM] | TGI (SW-620 colon) [µM] | TGI (UO-31 renal) [µM] | TGI (T-47D breast) [µM] | TGI (MALME-3M melanoma) [µM] | TGI (NCI-H23 lung) [µM] | TGI (A498 renal) [µM] | TGI (BT-549 breast) [µM] | TGI (HS 578T breast) [µM] | TGI (ACHN renal) [µM] | TGI (DU-145 prostate) [µM] | TGI (HL-60(TB) leukemia) [µM] | TGI (A549 NSCLC) [µM] | TGI (SK-OV-3 ovarian) [µM] | TGI (OVCAR-4 ovarian) [µM] | TGI (EKVX NSCLC) [µM]
1 | O=C(O)C12C3CCC(CC3)C1(C(=O)O)C1CCC2C1 (stereo unspecified) | > 100 | > 100 | > 100 | > 100 | > 100 | > 100 | > 100 | > 100 | > 100 | > 100 | > 100 | > 100 | > 100 | > 100 | > 100 | > 100 | – | –
2 | COC1=CC(=O)C2=C(C1=O)[C@H]1CC[C@]3(C)[C@@H](O)CC[C@H]3[C@@H]1CC2 | 30.3 | 83.8 | 32.3 | > 100 | 43.5 | 38.4 | – | 56.8 | > 100 | 31.8 | 42.7 | 31.9 | 31 | 46.5 | 34.7 | > 100 | 30.9 | 30.5
3 | CN1c2ccccc2C(=O)NC12CCN(CCCC(=O)c1ccc(F)cc1)CC2 | > 100 | 77.8 | > 100 | > 100 | > 100 | > 100 | 86.5 | > 100 | – | > 100 | > 100 | > 100 | > 100 | > 100 | > 100 | > 100 | > 100 | > 100
4 | Cc1n[nH]c(=O)n1N1C(=O)CCCC1=O | > 100 | > 100 | > 100 | – | – | > 100 | > 100 | > 100 | > 100 | > 100 | > 100 | – | > 100 | – | > 100 | > 100 | – | > 100
5 | COc1ccc(C2SCC(=O)N2c2ccc(-c3ccc(-n4c(-c5ccccc5)nc5ccccc5c4=O)cc3)cc2)cc1OC (stereo unspecified) | 33.5 | 96 | > 100 | > 100 | > 100 | > 100 | > 100 | > 100 | > 100 | 51.1 | > 100 | – | > 100 | > 100 | > 100 | > 100 | > 100 | > 100
6 | Nc1n[n+](CC(=O)c2ccccc2)c2sc(-c3ccccc3)nn12 | > 100 | > 100 | > 100 | > 100 | > 100 | > 100 | > 100 | > 100 | > 100 | > 100 | > 100 | > 100 | > 100 | – | > 100 | > 100 | > 100 | > 100
7 | CC(C)(C)OC(=O)N/N=C(/N)Cc1ccc(Cl)cc1 | > 100 | > 100 | > 100 | > 100 | > 100 | > 100 | > 100 | – | > 100 | > 100 | > 100 | > 100 | > 100 | – | > 100 | > 100 | > 100 | > 100
8 | COc1cc2c(cc1OC)C1C=NC(C2)c2cc(OC)c(OC)cc21 (stereo unspecified) | > 100 | > 100 | > 100 | > 100 | > 100 | > 100 | – | – | > 100 | > 100 | > 100 | > 100 | > 100 | > 100 | > 100 | > 100 | > 100 | > 100
9 | C=CC[C@@H](N)C(=O)N(C)[C@@H](C)[C@@H](O)c1ccccc1 | > 100 | – | > 100 | > 100 | > 100 | > 100 | – | > 100 | > 100 | > 100 | > 100 | > 100 | > 100 | > 100 | > 100 | > 100 | > 100 | –
10 | CC1=NC(=Cc2cccc(Cl)c2)C(=O)N1n1c(-c2ccccc2)nc2ccccc2c1=O | > 100 | > 100 | – | > 100 | > 100 | 69 | 82.1 | > 100 | 83.1 | > 100 | > 100 | 52.7 | > 100 | 61.6 | > 100 | > 100 | – | > 100
11 | COc1cc(/C=C/c2nc(NC(=S)Nc3ccccc3)nnc2C)cc(OC)c1OC | > 100 | 78.2 | – | > 100 | 67.7 | 90.1 | > 100 | 66.9 | 82.4 | 89 | > 100 | 48.1 | > 100 | 34.1 | > 100 | > 100 | 76.4 | > 100
12 | O=C1CCCN1C(=O)CS(=O)(=O)c1ccccc1 | > 100 | > 100 | > 100 | > 100 | > 100 | > 100 | > 100 | > 100 | > 100 | > 100 | > 100 | > 100 | > 100 | – | > 100 | > 100 | > 100 | –
13 | CS(=O)(=O)OCC1CN(S(C)(=O)=O)c2cc(O)ccc21 (stereo unspecified) | 14.6 | 10.3 | 8.27 | 28.3 | 11.1 | 1.96 | 4.35 | 6.61 | 7.81 | 8.85 | > 100 | 15.1 | 10 | 6.59 | 21.1 | – | 7.65 | 16
14 | CCOC(=O)C1=NOC2(C=C(Br)C(=O)C(Br)=C2)C1 | 32.4 | 6.42 | – | 2.77 | 2.51 | 3.99 | 1.25 | 9.41 | 38 | 17.8 | 68.1 | 2.25 | 17.8 | 1.1 | 59 | 21.1 | – | 5.45
